According to patent US20240108003A1, “COMPOSITIONS AND METHODS FOR IMPROVING PLANT PERFORMANCE” (Advanced Crop Chemistry, priority 2022, published 2024):
Values after ≈ are worked out from the molar mass of the structure shown.

Assays:
Pepper and tomato plants = test: Leaf numbers, leaf area and dry weight of greenhouse-grown tomato and pepper; assay type: in vivo; settings: foliar 1 g/L or 0.5 g+0.5 g/L, assessed at eight weeks
Procedure: Pepper and tomato plants were grown from seedlings for eight weeks in a greenhouse with ambient light at a constant 75° F. temperature. All plants received a standard fertigation treatment. Plants were destructively assessed at eight weeks. Each treatment had 20 single-plant replicates. Plants were treated with foliar applications of 2HOP (1 g/L water), […] water), or […] water). Each plant received approximately 50 ml of spray solution (sprayed to drip). All treatments included a wetting agent (polyalkyl glucoside) at 0.025% v/v addition. Plants received a light, cover spray at week 4. Plants were assessed in terms of leaf number per plant, leaf area/plant, and total dry weight/plant. In addition, at harvest, a composite leaf sample (10 leaves/plant, 200 leaves total) from each tomato treatment was collected, pooled with the other replicates, and assessed for elemental content which is presented in Table 18.

lettuce plants = test: Foliar treatment of lettuce plants, tissue aromatic amino acids; assay type: in vivo; settings: 0.5 g/L
Description: This is further supported by the data in Table 4 where foliar treatment of lettuce plants with […]) or 2HOP (0.5 g/L) increased the tissue levels of aromatic amino acids which are synthesized in the Shikimic acid pathway, a pathway that has a known role in modulation of plant innate tolerance to abiotic and biotic stresses such as disease.

physchem = settings: aqueous solutions
[1] = system: Zymoseptoria tritici (Septotia tritici); test: Growth of fungal plant pathogen on amended potato dextrose agar (colony surface area); assay type: cell-based; settings: 0.5 g/L in buffered PDA pH 6.2, 10 days, darkness, 68° F.
Procedure: Zymoseptoria tritici (Septotia tritici) was grown in petri dishes on buffered (pH 6.2) potato dextrose agar (PDA), amended with penicillin (100 mg/L) and streptomycin (100 mg/L) as well as 2HOP (0.5 g/L) or […]). Five replicate plates/treatments were used and the cultures were grown for 10 days in darkness at 68° F. At the end of the 10-day period, the cultures were assessed in terms of the total surface area of growth of the colonies.

leaf lettuce seedlings = test: Dry weight and carbon fixation capability in lettuce; assay type: in vivo; settings: weekly foliar 100 micromolar
Procedure: Sets (replicates) of leaf lettuce seedlings were treated with 2HOP or left untreated. Seedlings were grown in a greenhouse (75° F.) with ambient light, supplied with a standard liquid nutrient solution. The treated plants received weekly foliar sprays containing 100 micromolar 2HOP. Each replicate contained 20 plants in a tray. All plants were assessed for each prescribed parameter. For all parameter values vs control p=<0.05. RUBISCO is ribulose bisphosphate carboxylase, the major carbon-fixing enzyme.

[2] = system: Wheat seeds (Skyfall variety); test: Seed treatment, field grown wheat emergence and yield; assay type: in vivo
Description: The treatments were pre-diluted in an equivalent of 2 liters of water and applied to one ton of seed. The seeds were planted in the fall at a rate of 200 kg/ha.

oat seedlings [3] = test: Nitrate uptake rate of hydroponic oat seedlings; assay type: in vivo; settings: first four hours of treatment
Procedure: Oat seedlings were either treated or untreated and their rates of nitrogen uptake were measured. Oat seedlings were hydroponically grown in a greenhouse under ambient light at 75° F. with a complete standard soluble nutrient solution. They were acclimated to constant light, then deprived of nitrogen for a period, and then their nitrogen (nitrate) was replenished with or without 2HOP in the nutrient solution. The plant root systems were submerged in the appropriate solutions and the plants were allowed to grow and take up nitrate. The depletion of nitrate from the solution was measured every four hours to determine the rate of nitrate uptake by the plants.

[4] = system: Peace Lily (Spathiphyllum); test: Cold tolerance in a cold sensitive plant; assay type: in vivo; settings: foliar 1 g/L; 4 days of 34-35° F. for 5-6 hours/day one week after treatment
Procedure: The popular ornamental plant, the “Peace Lily”, is in the genus Spathiphyllum and all species are indigenous to the tropics. […] Three groups of containerized plants (in 6-inch pots, growing in a standard potting media) were established, and foliarly treated with 1 g/L 2HOP or LPGA. A surfactant (polyalkyl glucoside) at 0.25% v/v was added to both treatments to improve leaf coverage. Plants were treated and one week later were exposed 4 days to a diurnal regime of low temperatures (34° F. to 35° F.) for at least 5-6 hours/day and a high temperature of 55° F. to 57° F. for the remainder of the day. Plants were under a natural light regime. […] See Table 10 in FIG. 7A and FIG. 7B.

[5] = system: Hard Red Wheat seeds (variety Glenn); test: Seed treatment, greenhouse-grown wheat leaf emergence; assay type: in vivo; settings: greenhouse 65° F.
Procedure: The treatments were pre-diluted in an equivalent of 2 liters of water and applied to one ton of seed. The seeds were planted in a 30 cm×30 cm flat tray at 1 seed/cm^2 in a naturally illuminated greenhouse maintained at 65° F. See Table 19 in FIG. 14.

oat seedlings [6] = test: Leaf protein content of oat seedlings; assay type: in vivo; settings: three weekly foliar treatments 100 micromolar
Procedure: Sets of oat seedlings were treated or untreated with 2HOP and the total foliar protein content was compared. Seedlings were greenhouse-grown at 75° F. under ambient light and provided a standard complete nutrient. The seedlings were given three weekly foliar treatments with 2HOP (100 micromolar) beginning at the two-true leaf stage.

oat seedlings [7] = test: Soil application, carbon fixation capability in greenhouse grown oats; assay type: in vivo; settings: soil drench 75 nanomoles daily; for increase of CO2 fixation compared to the untreated: plants 28 days old
Procedure: Sets (replicates) of oat seedlings were treated with 2HOP, L-PGA, or left untreated. Seeds were planted in standard potting soil in a greenhouse at a constant 75° F. under natural light, supplied a standard liquid nutrient solution, and treated daily with 75 nanomoles of either 2HOP or L-PGA beginning 14 days after seedling emergence. The treatments were applied as a soil drench. The CO2 fixation rates were measured when plants were 28 days old. The ribulose bisphosphate carboxylase (RUBISCO) activation state was measured when plants were 26 days old. The rates for 20 plants were averaged for each set of plants. […] L-PGA increased CO2 fixation compared to the untreated by 21%. However, when 2HOP is compared to L-PGA in terms of CO2 fixation, 2HOP fixed CO2 at over an 11% higher rate (see Table 14).

Wheat (Winter White) = test: Herbicide phytotoxicity on greenhouse wheat with and without 2HOP or L-PGA; assay type: in vivo; settings: for phytotoxic impact of herbicides on wheat: combined with herbicides, foliar, assessed 10 days after application; for canopy biomass compared to the untreated: solo applications, 10 days post-treatment, visual
Procedure: Wheat (Winter White) seeds (5 g) were sown in a 1-gallon pot in a greenhouse under natural light with a diurnal temperature range of 75° F. to 90° F. Various herbicides were applied alone or in combinations with L-PGA or 2HOP. Materials were applied at the equivalent rate of 100 L water/Ha with 0.25% v/v polyalkyl glucoside added as a wetting agent. There were 4 replicates per treatment, with 1 pot/replicate. 10 days after sowing, plants received a light cover spray at an equivalent application volume of 25 gallons/acre. Plants were destructively assessed 10 days later by measuring the total above-ground biomass of each replicate.

oat seedlings [8] = test: Proline accumulation in oat seedlings; assay type: in vivo; settings: weekly foliar 100 micromolar, 3 weeks; untreated undetectable
Procedure: Sets of oat seedlings were grown and either treated or not treated with 2-hydroxy-5-oxoproline. The plants were grown in a greenhouse at 75° F. with ambient light and provided a standard complete nutrient plant food. Weekly foliar treatments were applied with 100 micromolar 2HOP began at the two-true leaf stage and continued for 3 weeks. Leaves from 20 plants were sampled and the free pools of proline were measured.

Grapevines = test: Yield from grapevines grown in nematode infested soil; assay type: in vivo, grapevine; settings: L-PGA root drench 1 g/L, Nemacur 7.5 ml/vine, vs untreated vines
Procedure: (§1) Grapevines were treated with L-PGA alone or in combination with Nemacur® at two sites in California. […] Vines at both sites were 6 years old and replanted into sandy soil (CEC <7 meq/100 g soil) previously planted with vines. […] Site 2 was in Fresno County (var: Thompson seedless) and at this site several parasitic nematode species were in evidence (Table 8). Several treatments were undertaken as per Tables 6 & 7. Untreated vines received the standard grower cultural management programs. At both sites the plants were ungrafted. At Site 1, soil levels of nematodes were assessed prior to the onset of treatments and at various times throughout the trial (as given in Table 7). Plants were treated in the spring, summer, and fall and assessed 12, 13, 15 and, 24 months later at Site 1. Yield data were collected at both sites. Site 1 was treated for two seasons and yield was collected over two seasons. At Site 2, yields were collected and soil nematode levels were assessed 18 months after the onset of the treatments. Site 2 was only treated for one season and only one crop year was assessed.

[9] = system: free-living (beneficial nematodes); settings: in vivo
Procedure: as §1

[10] = system: Root Knot nematode (Meloidogyne incognita, M. javanica, M. arenaria, and M. hapla); test: Soil Root Knot nematode populations, grapevines, Site 1; assay type: in vivo; settings: Site 1, after 15 months
Procedure: as §1

plant parasitic nematode = test: Soil plant parasitic nematode populations, grapevines, Site 2; assay type: in vivo, nematodes; settings: Site 2, L-PGA combined with Nemacur
Procedure: L-PGA was applied by drenching the roots with a solution (5 liters per plant) containing 1 g/L L-PGA. Nemacur® 400ec was applied as a labelled commercial treatment to specific rows at the trial locations by injection through the micro irrigation system (7.5 ml/vine). Each treatment comprised 20 vines in five replicate blocks (4 vines/replicate). […] Several treatments were undertaken as per Tables 6 & 7. Untreated vines received the standard grower cultural management programs. At both sites the plants were ungrafted. […] Yield data were collected at both sites.

[11] = system: Fusarium graminearum Schwabe Group 2; assay type: in vivo, Fusarium graminearum on wheat; settings: foliar applications to infected wheat; ELISA on pooled grain

O=C1CC[C@@](O)(C(=O)O)N1 [2HOP, 2-hydroxy-5-oxoproline]
number of leaves, leaf area, and total dry weight (Pepper and tomato plants): greatest increases
tissue levels of aromatic amino acids (lettuce plants): increased
solubility (physchem): 145 to 435 mg/mL (≈ 999 to 3000 mM)
direct suppression of fungal growth (total surface area of colonies) [1]: no direct suppression of fungal growth
elevation of CO2 fixation (leaf lettuce seedlings): > 50%
elevation of RUBISCO activation (leaf lettuce seedlings): 129%
elevation of biomass (leaf lettuce seedlings; average across all biomass parameters): 34%
wheat yield compared to the untreated plots [2]: increased
rate of nitrate uptake relative to untreated counterparts (oat seedlings [3]): approximately double
rate of nitrate uptake (oat seedlings [3]; untreated 5.8): 11.5 umol/gfwt/h
cold damage compared with untreated plants [4]: less cold damage
leaf emergence compared to the untreated group [5]: increased
total foliar fresh weight, % of the control plants (oat seedlings [6]): 183%
total foliar protein, % of untreated control plants (oat seedlings [6]): 252%
total protein in the foliar parts, % of untreated control plants (oat seedlings [6]): 252%
foliar protein concentration (oat seedlings [6]; control 6.0): 8.8 mg/g fresh weight
CO2 fixation rate, 2HOP compared to L-PGA (oat seedlings [7]; higher rate than L-PGA): > 11%
increase of RUBISCO activation (oat seedlings [7]; plants 26 days old): 48%
increase of CO2 fixation compared to the untreated (oat seedlings [7]): 34%
phytotoxic impact of herbicides on wheat (Wheat (Winter White)): suppression of the phytotoxic impact
canopy biomass compared to the untreated (Wheat (Winter White)): visual increase in canopy biomass
free proline pools in leaves (oat seedlings [8]): 2.6 micromol/g fwt

O=C1CC[C@@H](C(=O)O)N1 [L-PGA, L-pyroglutamate]
yield of grapevines (Grapevines): elevated yield
tissue levels of aromatic amino acids (lettuce plants): increased
direct suppression of fungal growth (total surface area of colonies) [1]: no direct suppression of fungal growth
effect on free-living (beneficial nematodes) [9]: minimal effect
soil Root Knot nematode populations [10]: reduced
wheat yield compared to the untreated plots [2]: increased
cold damage compared with untreated plants [4]: less cold damage
increase of emergence versus the untreated [5]: 19%
leaf emergence compared to the untreated group [5]: increased
increase of CO2 fixation compared to the untreated (oat seedlings [7]): 21%
phytotoxic impact of herbicides on wheat (Wheat (Winter White)): suppression of the phytotoxic impact
canopy biomass compared to the untreated (Wheat (Winter White)): visual increase in canopy biomass
efficacy of Nemacur in soil plant parasitic nematode population suppression (plant parasitic nematode): increased the efficacy

calcium phosphite
DON grain levels [11]: largest reduction
